Experimental findings from patent US9683025B2, “Methods and compositions for treating cancer and inflammatory diseases” (The Regents of the University of Colorado, A Body Corporate, priority 2013, dated 2017) are described below.

The structures appear in SMILES notation. Where a SMILES comes first, the peptide text is derived from it.

This experiment has as its target CtBP-E1A interaction (Homo sapiens, UniProt Q13363). The experiment can be described thus: CtBP-E1A interaction inhibition (AlphaScreen / fluorescence polarization competition assay). In kind it is binding. On the procedure:
The ability of peptides to inhibit CtBP binding can be monitored by two biochemical assays. An AlphaScreen assay (Perkin-Elmer) was developed that is capable of detecting the CtBP-E1A interaction. Purified GST-E1A and 6xHis-CtBP are incubated with glutathione-conjugated donor beads and nickel-chelated acceptor beads respectively. The interaction between CtBP and E1A brings the donor and acceptor beads in close proximity, which produces a fluorescence signal after laser excitation and can be detected using the EnVision plate reader. A peptide that inhibits this interaction will limit the proximity of the beads and thus a loss in fluorescence signal will occur. In addition to the alphascreen, a fluorescence polarization based assay with a fluorescein-labeled 14mer E1A peptide ([…] (SEQ ID NO: 1)) was also developed. Purified 6xHis-CtBP is incubated with the fluorescein-labeled E1A peptide and changes in the polarization value of the labeled peptide are detected using the EnVision plate reader. A decrease in peptide binding to CtBP can be detected by an […], and used to monitor peptide inhibition. IC50 values of designed peptides can be determined using either of these assays through the addition of increasing amounts in each well and monitoring the degree of inhibition of the CtBP-E1A interaction.
Multiple amino acid sequences may appear at positions outside the conserved peptide motif. The most frequently occurring amino acids in these positions are used to design the peptides that bind CtBP with the highest affinity. The affinity of these new peptides is compared to the original 14mer E1A peptide (SEQ ID NO:1) by comparing the IC50 of these peptides in inhibiting the CtBP/E1A protein interaction in a competition assay. The peptide identified from phage display that competes with the CtBP/E1A protein interaction better than the original 14mer E1A peptide is selected and conjugated to the cell penetrating peptide of the present invention. Also provided in Table 3 are […] for selected peptides.
The ability of peptides to inhibit CtBP binding can be monitored by two biochemical assays. An AlphaScreen assay (Perkin-Elmer) was developed that is capable of detecting the CtBP-E1A interaction. Purified GST-E1A and 6xHis-CtBP are incubated with glutathione-conjugated donor beads and nickel-chelated acceptor beads respectively. The interaction between CtBP and E1A brings the donor and acceptor beads in close proximity, which produces a fluorescence signal after laser excitation and can be detected using the EnVision plate reader. A peptide that inhibits this interaction will limit the proximity of the beads and thus a loss in fluorescence signal will occur. In addition to the alphascreen, a fluorescence polarization based assay with a fluorescein-labeled 14mer E1A peptide ([…] (SEQ ID NO: 1)) was also developed. Purified 6xHis-CtBP is incubated with the fluorescein-labeled E1A peptide and changes in the polarization value of the labeled peptide are detected using the EnVision plate reader. A decrease in peptide binding to CtBP can be detected by an […], and used to monitor peptide inhibition. IC50 values of designed peptides can be determined using either of these assays through the addition of increasing amounts in each well and monitoring the degree of inhibition of the CtBP-E1A interaction. Also provided in Table 4 are IC50 for selected peptides.

Setting [1] is: IC50 value, Table 3, inhibition of CtBP/E1A protein interaction.

As for `CC(=O)NCCCC[C@H](NC(=O)[C@H](CS)NC(=O)[C@H](CO)NC(=O)[C@H](CC(C)C)NC(=O)[C@H](CC(=O)O)NC(=O)[C@H](CC(C)C)NC(=O)[C@@H]1CCCN1C(=O)[C@H](CCC(N)=O)NC(=O)CNC(=O)[C@@H]1CCCN1C(=O)[C@@H](N)CCC(=O)O)C(=O)N[C@@H](CCCNC(=N)N)C(=O)N1CCC[C@H]1C(=O)N[C@@H](CCCNC(=N)N)C(=O)O` [K239-Acetylated] (H-EPGQPLDLSCK(Ac)RPR-OH; N-terminus and C-terminus assumed), under setting [1], the IC50 turned out to be 26.6 µM.

The molecule `CC(C)C[C@H](NC(=O)[C@H](CC(=O)O)NC(=O)[C@H](CC(C)C)NC(=O)[C@@H]1CCCN1C(=O)[C@H](CCC(N)=O)NC(=O)CNC(=O)[C@@H]1CCCN1C(=O)[C@@H](N)CCC(=O)O)C(=O)N[C@@H](CO)C(=O)N[C@@H](CS)C(=O)N[C@@H](C)C(=O)N[C@@H](CCCNC(=N)N)C(=O)N1CCC[C@H]1C(=O)N[C@@H](CCCNC(=N)N)C(=O)O` [Peptide K239A] (H-EPGQPLDLSCARPR-OH; N-terminus and C-terminus assumed) showed an IC50 under setting [1] of 21.9 µM.

Under setting [1], `CC(C)C[C@H](NC(=O)[C@H](CC(=O)O)NC(=O)[C@H](CC(C)C)NC(=O)[C@@H]1CCCN1C(=O)[C@H](CCC(N)=O)NC(=O)CNC(=O)[C@@H]1CCCN1C(=O)[C@@H](N)CCC(=O)O)C(=O)N[C@@H](CO)C(=O)N[C@@H](CS)C(=O)N[C@@H](CCC(N)=O)C(=O)N[C@@H](CCCNC(=N)N)C(=O)N1CCC[C@H]1C(=O)N[C@@H](CCCNC(=N)N)C(=O)O` [Peptide K239Q] (H-EPGQPLDLSCQRPR-OH; N-terminus and C-terminus assumed) returned an IC50 of 12 µM.

As for `CC(C)C[C@H](NC(=O)[C@H](CC(=O)O)NC(=O)[C@H](CC(C)C)NC(=O)[C@@H]1CCCN1C(=O)[C@H](CCC(N)=O)NC(=O)CNC(=O)[C@@H]1CCCN1C(=O)[C@H](CCC(=O)O)NC(=O)[C@H](CCC(=O)O)NC(=O)[C@H](CC(C)C)NC(=O)[C@H](CCC(N)=O)NC(=O)[C@@H]1CCCN1C(=O)[C@@H]1CCCN1C(=O)[C@H](CCCNC(=N)N)NC(=O)[C@H](CCCNC(=N)N)NC(=O)[C@H](CCCNC(=N)N)NC(=O)[C@H](CCC(N)=O)NC(=O)[C@H](CCCNC(=N)N)NC(=O)[C@H](CCCNC(=N)N)NC(=O)[C@H](CCCCN)NC(=O)[C@H](CCCCN)NC(=O)[C@H](CCCNC(=N)N)NC(=O)CN)C(=O)N[C@@H](CO)C(=O)N[C@@H](CS)C(=O)N[C@@H](CCCCN)C(=O)N[C@@H](CCCNC(=N)N)C(=O)N1CCC[C@H]1C(=O)N[C@@H](CCCNC(=N)N)C(=O)N[C@@H](CC(=O)O)C(=O)N[C@@H](Cc1ccc(O)cc1)C(=O)N[C@@H](CCCCN)C(=O)N[C@@H](CC(=O)O)C(=O)N[C@@H](CC(=O)O)C(=O)N[C@@H](CC(=O)O)C(=O)N[C@@H](CC(=O)O)C(=O)N[C@@H](CCCCN)C(=O)O` [Tat-E1A fusion] (H-GRKKRRQRRRPPQLEEPGQPLDLSCKRPRDYKDDDDK-OH; N-terminus and C-terminus assumed), the IC50 by setting is: (IC50 of inhibition of the CtBP/E1A interaction, FIG. 3, peptide purified from E. coli) about 7.7 µM; under setting [1], 1.7 µM.
